From patent US20220289751A1, “COMPOUND HAVING KDM5 INHIBITORY ACTIVITY AND PHARMACEUTICAL USE THEREOF” (ONO PHARMACEUTICAL CO., LTD., priority 2019, published 2022)
Read-outs that look alike come from different tables or passages of the source.

Legend:
Wild type MDCKII cells = test: Permeability in wild type MDCK cell lines (MDCK-WT); format: in vitro ADME; conditions: apical to basal, 10 μM test compound, 60 min, pH 7.4
Procedure: (§1) Wild type MDCKII cells were seeded onto an apical chamber 3 days prior to running the assay at a density of 2.3×10^5 cells per well. The integrity of cell monolayers was evaluated by examining the permeability of lucifer yellow assay using a Spectramax Gemini XS with excitation and emission at 426 nm and 538 nm respectively. Permeation of Lucifer Yellow should be ≤10×10^−6 cm/s for the experimental data to be accepted. The cell monolayers were preincubated in transport buffer (HBSS with CaCl2 and MgCl2)+25 mM HEPES, adjust to pH 7.4) at 37° C. or more than 20 min. Transport experiment was initiated by adding test compound solution (10 μM) to the apical chamber. Samples were obtained from basal chamber at 60 min, followed by addition of ice-cold acetonitrile containing internal standard. LC-MS/MS analysis was conducted as specified below. Standard calibration samples were prepared using the same matrix and analysed in the same manner. [table] […] Papp(cm/s)=(dCB/dt)×VB/(A×CA) dCB/dt is the slope of the cumulative concentration in basal side versus time VB is the volume of the basal compartment A is the area of the membrane surface area CA is the initial concentration in apical side

KDM5A protein = molecular target: T1, KDM5A protein (Homo sapiens, UniProt P29375); test: Biochemical KDM5A inhibition assay (HTRF)
T1 construct: purchased BPS Bioscience 50110
T1 sequence (P29375 whole entry): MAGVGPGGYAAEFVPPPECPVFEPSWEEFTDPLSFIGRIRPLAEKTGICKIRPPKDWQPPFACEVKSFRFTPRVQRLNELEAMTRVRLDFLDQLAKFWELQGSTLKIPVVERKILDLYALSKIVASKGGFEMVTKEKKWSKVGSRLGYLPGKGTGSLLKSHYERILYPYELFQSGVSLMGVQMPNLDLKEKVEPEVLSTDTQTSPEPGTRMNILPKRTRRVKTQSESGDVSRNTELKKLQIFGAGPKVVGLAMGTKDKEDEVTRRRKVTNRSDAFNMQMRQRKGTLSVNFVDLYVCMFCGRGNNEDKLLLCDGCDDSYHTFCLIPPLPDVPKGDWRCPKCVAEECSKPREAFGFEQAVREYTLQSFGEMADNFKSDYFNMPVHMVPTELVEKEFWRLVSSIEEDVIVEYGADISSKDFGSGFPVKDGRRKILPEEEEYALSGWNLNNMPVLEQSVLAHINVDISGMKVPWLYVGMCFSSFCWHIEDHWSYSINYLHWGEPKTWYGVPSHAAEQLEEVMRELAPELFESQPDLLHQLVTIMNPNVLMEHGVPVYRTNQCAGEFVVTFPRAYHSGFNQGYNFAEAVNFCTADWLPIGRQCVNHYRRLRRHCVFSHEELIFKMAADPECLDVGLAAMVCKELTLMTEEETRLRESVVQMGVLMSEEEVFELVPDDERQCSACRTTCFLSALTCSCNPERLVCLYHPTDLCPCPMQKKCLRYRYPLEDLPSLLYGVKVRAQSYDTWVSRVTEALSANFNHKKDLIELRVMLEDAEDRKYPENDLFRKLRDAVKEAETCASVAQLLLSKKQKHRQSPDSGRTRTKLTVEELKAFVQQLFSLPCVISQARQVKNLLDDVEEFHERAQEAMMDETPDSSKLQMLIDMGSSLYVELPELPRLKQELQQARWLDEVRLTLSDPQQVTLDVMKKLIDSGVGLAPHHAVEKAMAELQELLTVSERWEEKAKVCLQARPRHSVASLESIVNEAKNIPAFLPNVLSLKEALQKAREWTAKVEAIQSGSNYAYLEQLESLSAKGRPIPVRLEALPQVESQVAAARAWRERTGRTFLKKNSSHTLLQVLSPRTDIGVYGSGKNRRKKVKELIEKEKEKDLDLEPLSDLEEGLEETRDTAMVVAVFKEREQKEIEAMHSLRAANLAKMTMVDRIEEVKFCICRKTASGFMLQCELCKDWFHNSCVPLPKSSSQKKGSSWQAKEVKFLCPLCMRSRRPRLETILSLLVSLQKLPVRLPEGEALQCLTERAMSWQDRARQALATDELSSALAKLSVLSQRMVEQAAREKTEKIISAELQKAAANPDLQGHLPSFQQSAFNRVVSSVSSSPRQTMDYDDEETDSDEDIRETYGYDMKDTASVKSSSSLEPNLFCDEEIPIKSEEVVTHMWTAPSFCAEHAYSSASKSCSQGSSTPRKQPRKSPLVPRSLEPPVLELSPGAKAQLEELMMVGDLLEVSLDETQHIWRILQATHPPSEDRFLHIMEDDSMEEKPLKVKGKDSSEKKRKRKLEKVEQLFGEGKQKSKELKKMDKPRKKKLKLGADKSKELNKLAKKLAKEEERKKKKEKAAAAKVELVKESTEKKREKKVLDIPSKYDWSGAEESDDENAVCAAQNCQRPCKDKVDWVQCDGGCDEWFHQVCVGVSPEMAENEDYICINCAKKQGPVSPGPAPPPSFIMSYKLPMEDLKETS
Procedure: Using 384-well white ProxiPlates (PerkinElmer), representative compounds were characterized for their inhibition of KDM5A using HTRF® technology (Cisbio Bioassays). Briefly, the test compounds, reference compounds, and DMSO control (typical compound concentration range 300 pM-10 μM, final assay concentration (FAC) of DMSO 0.5%) were added to 384-well plate by the Echo® acoustic dispensing platform (Labcyte). Three (3) μ1 of KDM5A protein (BPS Bioscience, Cat #50110)(10 or 20 nM FAC) in assay buffer (50 mM MES, 50 mM NaCl, 2 mM ascorbic acid, 0.01% v/v Tween 20, pH 6.5) was added to wells and plates were incubated for 10 minutes at room temperature. Then, 3 μl of biotin-labelled H3K4-me3 substrate (Anaspec Cat #AS-64357-1; 100 nM FAC), alpha-ketoglutaric acid ([…]) and Fe(II)SO4 (FAC 100 μM) in assay buffer was added and plates were incubated for 60 minutes at room temperature. The reaction was stopped with the addition of 6 μl of anti-H3-[…]-Eu(K) (Cisbio Bioassays Cat #61KA2KAE; 0.025 μg/ml FAC)+Streptavidin XL665 (Cisbio Bioassays Cat #610SAXLA; 0.5 μg/ml FAC) in HTRF detection buffer (Cisbio Bioassays Cat #62SDBRDD). The mixture was incubated for 90 minutes at room temperature before 340 nm excitation and measurement of dual emission at 620 nm and 665 nm. The raw data (a 665 nm and a 620 nm reading from each well) for individual assay plates were analyzed. The ratio of emissions was calculated using the following calculation: Ratio=(665 nm emission/620 nm emission)*10000. Using DMSO control (maximum response or 0% inhibition) and 1 μM reference control compound (minimum response or 100% inhibition), percentage inhibition values for each well were calculated using the median values of the minimum and maximum control wells and the following calculation: % Inhibition=(Well ratio-max control ratio)/(min control ratio-max control ratio)*100. Compound IC50 values were calculated from graphs of % inhibition plotted against compound concentration, using a four parameter curve fit.

[1] = Permeability in wild type MDCK cell lines (MDCK-WT); format: in vitro ADME; conditions: dog, MDCK, pH 7.4, apical to basal, 10 μM test compound
Procedure: as §1

[2] = comparative compounds, enzyme concentration not stated, read-out: IC50 values (μM) of comparative compound
[3] = comparative compounds, read-out: permeabilities in MDCK-WT of comparative compound
[4] = 20 nM enzyme concentration, read-out: IC50 value

## Cc1onc([C@H]2[C@@H]3CN(C(=O)c4cc(C(C)C)[nH]n4)C[C@@H]32)c1-c1ccccc1 [EXAMPLE 134, (5-Isopropyl-1H-pyrazol-3-yl)((1R,5S,6r)-6-(5-methyl-4-phenylisoxazol-3-yl)-3-azabicyclo[3.1.0]hexan-3-yl)methanone]
Wild type MDCKII cells
  MDCK-WT (Papp) [10^−6 cm/s]: 24 10^−6 cm/s

## CC(C)c1cc(C(=O)N2C[C@@H]3[C@H](C2)[C@H]3C(=O)N2CCCC2(C)C)n[nH]1 [EXAMPLE 131, (2,2-Dimethylpyrrolidin-1-yl)((1R,5S,6r)-3-(5-isopropyl-1H-pyrazole-3-carbonyl)-3-azabicyclo[3.1.0]hexan-6-yl)methanone]
Wild type MDCKII cells
  MDCK-WT (Papp) [10^−6 cm/s]: 20 10^−6 cm/s

## CC(C)c1cc(C(=O)N2CC[C@@H](NC(=O)C3CC3)C2)[nH]n1 [(R)—N-(1-(3-isopropyl-1H-pyrazole-5-carbonyl)pyrrolidin-3-yl)cyclopropane carboxamide, reference compound]
KDM5A protein; [2]
  IC50: 0.02 µM
[1]; [3]
  Papp A→B at 60 min, 10 μM: 4.9 ×10⁻⁶ cm/s

## CC(C)n1c(-c2ccccc2)nc2c(C(N)=O)ccnc2c1=O [EXAMPLE 31, 3-isopropyl-4-oxo-2-phenyl-3,4-dihydropyrido[3,2-d]pyrimidine-8-carboxamide]
KDM5A protein; [4]
  IC50: 0.2 µM
[1]; read-out: MDCK-WT (Papp)
  Papp A→B at 60 min, 10 μM: 64 ×10⁻⁶ cm/s

## CC(C)c1c(-c2cnn(CC3CC3)c2)[nH]c2c(C#N)cnn2c1=O [5-(1-(cyclopropylmethyl)-1H-pyrazol-4-yl)-6-isopropyl-7-oxo-4,7-dihydropyrazolo[1,5-a]pyrimidine-3-carbonitrile, reference compound]
KDM5A protein; [2]
  IC50: 0.005 µM
[1]; [3]
  Papp A→B at 60 min, 10 μM: 5.6 ×10⁻⁶ cm/s

## CC(C)n1c(-c2cnn(CC3CC3)c2)nc2c(C(N)=O)ccnc2c1=O [EXAMPLE 30, 2-(1-(Cyclopropylmethyl)-1H-pyrazol-4-yl)-3-isopropyl-4-oxo-3,4-dihydropyrido[3,2-d]pyrimidine-8-carboxamide]
KDM5A protein; [4]
  IC50: 0.3 µM
[1]; read-out: MDCK-WT (Papp)
  Papp A→B at 60 min, 10 μM: 37 ×10⁻⁶ cm/s

## O=C(NC1CN(C(=O)c2cc(C3CC3)[nH]n2)C1)C1CC12CC2 (single isomer, unassigned) [EXAMPLE 105, N-(1-(5-cyclopropyl-1H-pyrazole-3-carbonyl)azetidin-3-yl)spiro[2.2]pentane-1-carboxamide]
Wild type MDCKII cells
  MDCK-WT (Papp) [10^−6 cm/s]: 6 10^−6 cm/s
